In brackets after ≈: the same amount, converted by molar mass.
Experiments:
[1] = Dose safety assessment in vivo; settings: mice treated with the tested doses (25 or 50 mg/kg⋅bw) for 30 days
Protocol: Dose safety assessment in vivo was performed to determine safe doses of licarin-B, as previously described.

[2] = tested on: T. gondii tachyzoites in HFFs; test: Transmission electron microscopy of tachyzoites; assay type: cell-based, Toxoplasma gondii; settings: 18 μg/mL
Protocol: For transmission electron microscopy (TEM) analysis, HFFs were seeded to confluence in T25 flasks and infected with 1.5 × 10^6 T. gondii tachyzoites for 8 h. After the addition of 18 μg/mL licarin-B, the cells were cultured for 4, 8, or 16 h, digested with TrypLE Express for 2 min, washed twice with PBS, fixed with 2.5% glutaraldehyde at 4°C for 12 h, washed with PBS to remove glutaraldehyde and post-fixed with 1% osmium acid solution for 1.5 h in the dark. The samples were then washed with PBS, dehydrated in a graded alcohol series, dehydrated in acetone and embedded in Epon. Ultrathin sections were stained with uranyl acetate and lead citrate and observed under a transmission electron microscope (Tecnai Spirit Bio-TWIN, Thermo Fisher Scientific, FEI, United States).

T. gondii tachyzoites [3] = test: Monodansylcadaverine (MDC) staining of autophagosomes; assay type: cell-based, Toxoplasma gondii
Protocol: For each sample, approximately 1 × 10^5 tachyzoites were treated with licarin-B (18 μg/mL) in DMEM for 4, 8, or 16 h at 37°C; licarin-B (18, 27, or 36 μg/mL) in DMEM for 8 h at 37°C; or no drug (as a control) in DMEM. Then, the samples were washed with PBS (pH 7.4), suspended in monodansylcadaverine (MDC) working solution (100 μM) at 37°C for 1 h after centrifugation, and washed twice with PBS. The tachyzoites were resuspended in 500 μL of PBS, and the fluorescence in each group was visualized by laser scanning confocal microscopy.

[4] = tested on: T. gondii invasion of HFFs; test: Anti-invasion assessment in vitro (qPCR); assay type: cell-based, Toxoplasma gondii; settings: 4.5–22.5 μg/mL, 2 h of infection
Protocol: Human foreskin fibroblasts were seeded in 6-well plates and incubated with different concentrations of licarin-B (4.5, 9, 13.5, 18, or 22.5 μg/mL), sulfadiazine (0.4 μg/mL, as a positive control) or without drugs in DMEM supplemented with 1% FBS and then infected with 3 × 10^6 fresh parasites per well. The anti-invasion capability of licarin-B was determined by qPCR after 2 h of infection, as described in a previous study ([Zhang J.L. et al., 2019]). Triplicate independent experiments were performed.

[5] = tested on: T. gondii tachyzoites (strain RH) in HFFs; test: In vitro screening of anti-T. gondii activity (Giemsa staining, qPCR); assay type: cell-based, Toxoplasma gondii; settings: 24 h
Protocol: Human foreskin fibroblasts were seeded in 6-well plates and infected with 3 × 10^4 fresh T. gondii tachyzoites. After 8 h, the natural compounds in DMEM supplemented with 1% FBS were added. Sulfadiazine and pyrimethamine were included as positive drug controls. After incubation for 24 h, the cells were washed twice with PBS, stained with Giemsa, and observed by light microscopy. In addition, total DNA was isolated from the cells using DNAiso Reagent (Takara), and a 529-bp repeat element was amplified by quantitative polymerase chain reaction (qPCR) with the following primers: Tox-F (5′-AGGAGAGATATCAGGACTGTAG-3′), Tox-R (5′-GCGTCGTCTCGTCTAGATCG-3′), and the Taqman probe Tox-TP (6-Fam CCGGCTTGGCTGCTTTTCCT BHQ1), as described in a previous study ([Zhang J.L. et al., 2019]). The inhibition rates against T. gondii proliferation for the natural compounds at concentrations with no HFF toxicity were calculated, and the inhibition rate in each treatment group was presented as the % of the control group. The experiment was repeated three times.

[6] = tested on: T. gondii tachyzoite intracellular proliferation in HFFs; test: Anti-proliferation activity of licarin-B (qPCR); assay type: cell-based, Toxoplasma gondii; settings: 24 h
Protocol: DMEM without drugs was used as a parasite control. […] After 24 h, the cells were washed twice with PBS, and total genomic DNA from the cells was obtained as described in a previous study ([Zhang J.L. et al., 2019]). […] The results represent the means ± standard deviations (SD) from at least three independent experiments. The EC50 of licarin-B for tachyzoite growth inhibition was plotted as a function of the compound concentration via non-linear curve analysis using SPSS 19.0 software (SPSS Inc., Chicago, IL, United States). The results of the anti-invasion and anti-proliferation tests, the in vivo assays of the survival rate and parasite burden and data comparisons between the parasite control and treatment groups were statistically analyzed by one-way analysis of variance (ANOVA) using SPSS software.

T. gondii tachyzoites [7] = test: In vivo parasite burden in tissues and blood (qPCR); design: species or system BALB/c mice; settings: 50 mg/kg⋅bw, acutely infected mice
Protocol: To evaluate the therapeutic effect of licarin-B on acute infection, mice were infected intraperitoneally with 1 × 10^4 tachyzoites and then divided into three groups (six mice/group) for treatment with PBS (as a parasite control), licarin-B (50 mg/kg⋅bw), or a positive control drug, as described above ([Zhang J.L. et al., 2019]). The treatments were administered for 4 consecutive days, and then, the number of parasites in the tissue and blood samples were deduced from standard curves constructed using known numbers of tachyzoites, as previously described.

[8] = tested on: extracellular T. gondii tachyzoites; test: DAPI staining of the nucleus; assay type: cell-based, Toxoplasma gondii; settings: 18, 27, or 36 μg/mL for 16 h
Protocol: Extracellular parasites (1 × 10^5 per group) were incubated in DMEM with licarin-B (18, 27, or 36 μg/mL) or without any drug (as a control) for 16 h at 37°C. All the samples were stained with 4′,6-diamidino-2-phenylindole (DAPI) at 37°C for 10 min, and fluorescence intensity was observed by laser confocal microscopy.

T. gondii tachyzoites [9] = test: In vivo survival of acutely infected mice; design: species or system BALB/c mice; settings: 30-day test period
Protocol: The therapeutic effect on acute infection was evaluated as described by Zhang; female BALB/c mice were divided into four groups consisting of 10 mice each, and each mouse was injected with 2 × 10^3 tachyzoites by intraperitoneal injection. Then, the mice were treated with licarin-B (25 or 50 mg/kg⋅bw), the positive drugs (100 mg/kg⋅bw sulfadiazine, 50 mg/kg⋅bw pyrimethamine, or 15 mg/kg⋅bw folinic acid) or PBS (as control) ([Si et al., 2018]). Positive drugs were administered by oral administration, and licarin-B was administered by intraperitoneal injection. […] The survival times of the infected mice and the number of deaths were monitored and recorded twice daily for 30 days.

[10] = tested on: extracellular T. gondii tachyzoites; test: MitoTracker Red CMXRos staining (mitochondrial membrane potential); assay type: cell-based, Toxoplasma gondii
Protocol: Extracellular parasites (1 × 10^5 per group) were incubated in DMEM with licarin-B (18 μg/mL) for 4, 8, or 16 h at 37°C; with licarin-B (18, 27, or 36 μg/mL) for 8 h at 37°C; or without any drug (as a control). Then, all the samples were stained with the MitoTracker Red CMXRos probe (50 nM, Invitrogen, United States) for 20 min. ([Zhang J.L. et al., 2019]). The fluorescence intensity was observed by laser confocal microscopy (ZEISS LSM-800, Jena, Germany).

[11] = tested on: extracellular T. gondii tachyzoites; test: Flow cytometry analysis of T. gondii survival (annexin V-PE / 7-AAD); assay type: cell-based, Toxoplasma gondii; settings: 24 h
Protocol: Approximately 1 × 10^6 extracellular tachyzoites were incubated with licarin-B (18 or 36 μg/mL) in DMEM or with no drug as a control for 24 h, followed by centrifugation at 1,500 × g for 10 min. The samples were washed with PBS and suspended in 100 μL of binding buffer with 5 μL of annexin V-PE and 5 μL of 7-AAD dye in the dark for 20 min at 37°C. Double mixtures were acquired and analyzed by flow cytometry (BD FACSVerse, United States) ([Giovati et al., 2018]). The experiment was repeated three times.

T. gondii [12] = settings: ref Zhang J. et al., 2019; cited from earlier work
T. gondii [13] = tested on: T. gondii; design: method as in Zhang J. et al., 2019; settings: 50 mg/kg.bw; ref Zhang J. et al., 2019; cited from earlier work

C/C=C/c1cc(OC)c2c(c1)C(C)[C@@H](c1ccc3c(c1)OCO3)O2 (stereo partly drawn) [Licarin-B, 5-[(2S)-2,3-D\dihydro-7-methoxy-3β-methyl-5-[(E)-1-propenyl]benzofuran-2-yl]-1,3-benzodioxole]
Clinical toxicity [1]: no discernible clinical toxicity was observed | Ultrastructural changes in tachyzoites (TEM) ([2]; 4 h): slight mitochondrial swelling and a double membrane structure | Ultrastructural changes in tachyzoites (TEM) ([2]; 8 h): mitochondrial swelling, cristae disruption, vacuole formation, and an autophagy-like double membrane structure in the cytoplasm | Ultrastructural changes in tachyzoites (TEM) ([2]; 16 h): extensive clefts around the nucleus, nuclear membrane disappearance, and progressive degeneration of the parasites | MDC labelling of autophagosomes (T. gondii tachyzoites [3]; 18 μg/mL for 4, 8, or 16 h): some parasites were positive for MDC | MDC labelling of autophagosomes (T. gondii tachyzoites [3]; 18, 27, and 36 μg/mL for 8 h): autophagy was induced in T. gondii in a concentration-dependent manner | Inhibition of T. gondii invasion vs control [4]: significantly (p < 0.01) inhibited T. gondii invasion | Mean inhibition rate (% of control) ([5]; 200 μg/mL, T. gondii proliferation in HFFs): 99.76 ± 5.81% | Parasitophorous vacuoles (PVs) in host cells ([5]; Giemsa staining, maximum concentration safe for HFFs (licarin-B 200 μg/mL)): no parasitophorous vacuoles (PVs) in host cells | Inhibition of T. gondii tachyzoite intracellular proliferation vs control ([6]; 4.5–45 μg/mL): significantly (p < 0.01) inhibited T. gondii tachyzoite intracellular proliferation in a concentration-dependent manner | EC50 for T. gondii tachyzoite growth inhibition ([6]; intracellular proliferation in HFFs): 14.05 ± 3.96 µg/mL | Parasite loads in the blood and brain, liver, and spleen tissues vs parasite control (T. gondii tachyzoites [7]): significantly (p < 0.01) reduced the parasite loads | DAPI staining of parasite nuclei [8]: diffuse fluorescent signal in the parasite nuclei | Survival rate of infected mice (T. gondii tachyzoites [9]; 25 mg/kg⋅bw intraperitoneal once daily for 15 days): 60% | Survival rate of infected mice (T. gondii tachyzoites [9]; 50 mg/kg⋅bw intraperitoneal once daily for 15 days): 90% | Mitochondrial membrane potential (ΔΨm) ([10]; 18 μg/mL for 4, 8, or 16 h): decreased the ΔΨm in T. gondii in a time-dependent manner | Mitochondrial membrane potential (ΔΨm) ([10]; 18, 27, or 36 μg/mL for 8 h): the ΔΨm was reduced in a dose-dependent manner | T. gondii survival rate ([11]; 18 μg/mL): approximately 45% | T. gondii survival rate ([11]; 36 μg/mL): ~26%

C=CCc1cc(OC)c(O[C@@H](C)[C@H](O)c2ccc(O)c(OC)c2)c(OC)c1 [myrislignan]
EC50, anti-T. gondii activity (T. gondii [12]): 32.41 µg/mL (≈ 86.6 µM) | Survival rate in mice upon acute infection (T. gondii [13]): 50%

— publication PMC8226262, “Licarin-B Exhibits Activity Against the Toxoplasma gondii RH Strain by Damaging Mitochondria and Activating Autophagy” (Frontiers in Cell and Developmental Biology, 2021)
